Key:
[1] = tested on: recombinant NL4-3 virus (nef section replaced with Renilla luciferase gene) in MT-2 cells; experiment: HIV cell culture assay (antiviral activity, luciferase readout); format: cell-based; conditions: Renilla, NL43, MT-2 cells infected for 4-5 days with recombinant NL4-3 Renilla luciferase virus
In short: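 Reporter virus is produced in 293T cells and its titer set in MT-2 cells by luciferase activity. MT-2 cells are then infected in the presence of serially diluted compound for 4-5 days. Luciferase is quantified and EC50 fitted to the median effect equation.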

[2] = Compound cytotoxicity, XTT-based colorimetric assay; format: cell-based; conditions: human; uninfected MT2 cells, day 4, XTT; read-out: CC50
In short: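 CC50 derived from XTT colorimetric signal measured on day 4 in MT2 cells that were not infected. All other steps followed the antiviral assay protocol.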

Row | SMILES | EC50 [1] | CC50 at 4 days [2]
1 | Cc1cc(C2CCC(F)(F)CC2)nc2nc([C@H](Cc3cc(F)cc(F)c3)NC(=O)Cn3nc(C4CC4)c4c3C[C@@H]3C[C@H]43)n(-c3ccc(Cl)c4c(NS(C)(=O)=O)nn(CCN5CCO[C@@H](C(C)C)C5)c34)c(=O)c12 (atropisomer, axis not shown; (P)) [Example 456, N-[(1S)-1-[(3P)-3-(4-chloro-3-methanesulfonamido-1-{2-[(2S)-2-(propan-2-yl)morpholin-4-yl]ethyl}-1H-indazol-7-yl)-7-(4,4-difluorocyclohexyl)-5-methyl-4-oxo-3H,4H-pyrido[2,3-d]pyrimidin-2-yl]-2-(3,5-difluorophenyl)ethyl]-2-[(2S,4S)-9-cyclopropyl-7,8-diazatricyclo[4.3.0.0^2,^4]nona-1(6),8-dien-7-yl]acetamide] | 0.01 nM | > 20 nM
2 | Cc1cc(C2CCC(F)(F)CC2)nc2nc([C@H](Cc3cc(F)cc(F)c3)NC(=O)Cn3nc(C4CC4)c4c3C[C@@H]3C[C@H]43)n(-c3ccc(Cl)c4c(NS(C)(=O)=O)nn(CCN5CCO[C@H](C(C)C)C5)c34)c(=O)c12 (atropisomer, axis not shown; (P)) [Example 457, N-[(1S)-1-[(3P)-3-(4-chloro-3-methanesulfonamido-1-{2-[(2R)-2-(propan-2-yl)morpholin-4-yl]ethyl}-1H-indazol-7-yl)-7-(4,4-difluorocyclohexyl)-5-methyl-4-oxo-3H,4H-pyrido[2,3-d]pyrimidin-2-yl]-2-(3,5-difluorophenyl)ethyl]-2-[(2S,4S)-9-cyclopropyl-7,8-diazatricyclo[4.3.0.0^2,^4]nona-1(6),8-dien-7-yl]acetamide] | 0.007 nM | > 20 nM
3 | Cc1cc(C2CCC(F)(F)CC2)nc2nc([C@H](Cc3cc(F)cc(F)c3)NC(=O)Cn3nc(C4CC4)c4c3C[C@@H]3C[C@H]43)n(-c3ccc(Cl)c4c(NS(C)(=O)=O)nn(CCN5C[C@H](C)OC(C)(C)C5)c34)c(=O)c12 (atropisomer, axis not shown; (P)) [Example 458, N-[(1S)-1-[(3P)-3-(4-chloro-3-methanesulfonamido-1-{2-[(6S)-2,2,6-trimethylmorpholin-4-yl]ethyl}-1H-indazol-7-yl)-7-(4,4-difluorocyclohexyl)-5-methyl-4-oxo-3H,4H-pyrido[2,3-d]pyrimidin-2-yl]-2-(3,5-difluorophenyl)ethyl]-2-[(2S,4S)-9-cyclopropyl-7,8-diazatricyclo[4.3.0.0^2,^4]nona-1(6),8-dien-7-yl]acetamide] | 0.007 nM | > 20 nM
4 | Cc1cc(C2CCC(F)(F)CC2)nc2nc([C@H](Cc3cc(F)cc(F)c3)NC(=O)Cn3nc(C4CC4)c4c3C[C@@H]3C[C@H]43)n(-c3ccc(Cl)c4c(NS(C)(=O)=O)nn(CCN5C[C@@H](C)OC(C)(C)C5)c34)c(=O)c12 (atropisomer, axis not shown; (P)) [Example 459, N-[(1S)-1-[(3P)-3-(4-chloro-3-methanesulfonamido-1-{2-[(6R)-2,2,6-trimethylmorpholin-4-yl]ethyl}-1H-indazol-7-yl)-7-(4,4-difluorocyclohexyl)-5-methyl-4-oxo-3H,4H-pyrido[2,3-d]pyrimidin-2-yl]-2-(3,5-difluorophenyl)ethyl]-2-[(2S,4S)-9-cyclopropyl-7,8-diazatricyclo[4.3.0.0^2,^4]nona-1(6),8-dien-7-yl]acetamide] | 0.005 nM | > 20 nM
5 | C[C@@H]1CN(CCn2nc(NS(C)(=O)=O)c3c(Cl)ccc(-n4c([C@H](Cc5cc(F)cc(F)c5)NC(=O)Cn5nc(C6CC6)c6c5C[C@@H]5C[C@H]65)nc5nc(C6CCC(F)(F)CC6)cc(C(F)F)c5c4=O)c32)CC(C)(C)O1 (atropisomer, axis not shown; (P)) [Example 462, N-[(1S)-1-[(3P)-3-(4-chloro-3-methanesulfonamido-1-{2-[(6R)-2,2,6-trimethylmorpholin-4-yl]ethyl}-1H-indazol-7-yl)-7-(4,4-difluorocyclohexyl)-5-(difluoromethyl)-4-oxo-3H,4H-pyrido[2,3-d]pyrimidin-2-yl]-2-(3,5-difluorophenyl)ethyl]-2-[(2S,4S)-9-cyclopropyl-7,8-diazatricyclo[4.3.0.0^2,^4]nona-1(6),8-dien-7-yl]acetamide] | 0.019 nM | > 20 nM
6 | CC(C)[C@H]1CN(CCn2nc(NS(C)(=O)=O)c3c(Cl)ccc(-n4c([C@H](Cc5cc(F)cc(F)c5)NC(=O)Cn5nc(C6CC6)c6c5C[C@@H]5C[C@H]65)nc5nc(C6CCC(F)(F)CC6)cc(C(F)F)c5c4=O)c32)CCO1 (atropisomer, axis not shown; (P)) [Example 467, N-[(1S)-1-[(3P)-3-(4-chloro-3-methanesulfonamido-1-{2-[(2S)-2-(propan-2-yl)morpholin-4-yl]ethyl}-1H-indazol-7-yl)-7-(4,4-difluorocyclohexyl)-5-(difluoromethyl)-4-oxo-3H,4H-pyrido[2,3-d]pyrimidin-2-yl]-2-(3,5-difluorophenyl)ethyl]-2-[(2S,4S)-9-cyclopropyl-7,8-diazatricyclo[4.3.0.0^2,^4]nona-1(6),8-dien-7-yl]acetamide] | 0.017 nM | > 20 nM
7 | COCCCn1nc(NS(C)(=O)=O)c2c(Cl)ccc(-n3c([C@H](Cc4cc(F)cc(F)c4)NC(=O)Cn4nc(C(F)F)c5c4C(F)(F)[C@@H]4C[C@H]54)nc4nc(C5CCC(F)(F)CC5)cc(CN5CC(C)(C)OC(C)(C)C5)c4c3=O)c21 (atropisomer, axis not shown; (P)) [Example 471, N-[(1S)-1-[(3P)-3-[4-chloro-3-methanesulfonamido-1-(3-methoxypropyl)-1H-indazol-7-yl]-7-(4,4-difluorocyclohexyl)-4-oxo-5-[(2,2,6,6-tetramethylmorpholin-4-yl)methyl]-3H,4H-pyrido[2,3-d]pyrimidin-2-yl]-2-(3,5-difluorophenyl)ethyl]-2-[(2S,4R)-9-(difluoromethyl)-5,5-difluoro-7,8-diazatricyclo[4.3.0.0^2,^4]nona-1(6),8-dien-7-yl]acetamide] | 0.038 nM | > 20 nM
8 | CNCc1cc(C2CCC(F)(F)CC2)nc2nc([C@H](Cc3cc(F)cc(F)c3)NC(=O)Cn3nc(C(F)F)c4c3C(F)(F)[C@@H]3C[C@H]43)n(-c3ccc(Cl)c4c(NS(C)(=O)=O)nn(CCCOC)c34)c(=O)c12 (atropisomer, axis not shown; (P)) [Example 472, N-[(1S)-1-[(3P)-3-[4-chloro-3-methanesulfonamido-1-(3-methoxypropyl)-1H-indazol-7-yl]-7-(4,4-difluorocyclohexyl)-5-[(methylamino)methyl]-4-oxo-3H,4H-pyrido[2,3-d]pyrimidin-2-yl]-2-(3,5-difluorophenyl)ethyl]-2-[(2S,4R)-9-(difluoromethyl)-5,5-difluoro-7,8-diazatricyclo[4.3.0.0^2,^4]nona-1(6),8-dien-7-yl]acetamide] | 0.087 nM | > 20 nM
9 | Cc1cc(C2(C)CCC(F)(F)CC2)nc2nc([C@H](Cc3cc(F)cc(F)c3)NC(=O)Cn3nc(C(F)F)c4c3C(F)(F)[C@@H]3C[C@H]43)n(-c3ccc(Cl)c4c(NS(C)(=O)=O)nn(CCN5C[C@H](F)C[C@H](F)C5)c34)c(=O)c12 (atropisomer, axis not shown; (P)) [Example 473, N-[(1S)-1-[(3P)-3-(4-chloro-1-{2-[(3R,5S)-3,5-difluoropiperidin-1-yl]ethyl}-3-methanesulfonamido-1H-indazol-7-yl)-7-(4,4-difluoro-1-methylcyclohexyl)-5-methyl-4-oxo-3H,4H-pyrido[2,3-d]pyrimidin-2-yl]-2-(3,5-difluorophenyl)ethyl]-2-[(2S,4R)-9-(difluoromethyl)-5,5-difluoro-7,8-diazatricyclo[4.3.0.0^2,^4]nona-1(6),8-dien-7-yl]acetamide] | 0.008 nM | > 20 nM
10 | COCCCn1nc(NS(C)(=O)=O)c2c(Cl)ccc(-n3c([C@H](Cc4cc(F)cc(F)c4)NC(=O)Cn4nc(C(F)F)c5c4C(F)(F)[C@@H]4C[C@H]54)nc4nc(C5CCC(F)(F)CC5)cc(NCCN5C[C@@H](C)O[C@@H](C)C5)c4c3=O)c21 (atropisomer, axis not shown; (P)) [Example 475] | 0.004 nM | > 20 nM
11 | COCCCn1nc(NS(C)(=O)=O)c2c(Cl)ccc(-n3c([C@H](Cc4cc(F)cc(F)c4)NC(=O)Cn4nc(C(F)F)c5c4C(F)(F)[C@@H]4C[C@H]54)nc4nc(C5CCC(F)(F)CC5)cc(NCCN5CCOC(C)(C)C5)c4c3=O)c21 (atropisomer, axis not shown; (P)) [Example 476, N-[(1S)-1-[(3P)-3-[4-chloro-3-methanesulfonamido-1-(3-methoxypropyl)-1H-indazol-7-yl]-7-(4,4-difluorocyclohexyl)-5-{[2-(2,2-dimethylmorpholin-4-yl)ethyl]amino}-4-oxo-3H,4H-pyrido[2,3-d]pyrimidin-2-yl]-2-(3,5-difluorophenyl)ethyl]-2-[(2S,4R)-9-(difluoromethyl)-5,5-difluoro-7,8-diazatricyclo[4.3.0.0^2,^4]nona-1(6),8-dien-7-yl]acetamide] | 0.005 nM | > 20 nM
12 | COCCCn1nc(NS(C)(=O)=O)c2c(Cl)ccc(-n3c([C@H](Cc4cc(F)cc(F)c4)NC(=O)Cn4nc(C(F)F)c5c4C(F)(F)[C@@H]4C[C@H]54)nc4nc(C5CCC(F)(F)CC5)cc(NCCN5CCOCC5(C)C)c4c3=O)c21 (atropisomer, axis not shown; (P)) [Example 477, N-[(1S)-1-[(3P)-3-[4-chloro-3-methanesulfonamido-1-(3-methoxypropyl)-1H-indazol-7-yl]-7-(4,4-difluorocyclohexyl)-5-{[2-(3,3-dimethylmorpholin-4-yl)ethyl]amino}-4-oxo-3H,4H-pyrido[2,3-d]pyrimidin-2-yl]-2-(3,5-difluorophenyl)ethyl]-2-[(2S,4R)-9-(difluoromethyl)-5,5-difluoro-7,8-diazatricyclo[4.3.0.0^2,^4]nona-1(6),8-dien-7-yl]acetamide] | 0.013 nM | > 20 nM

Source: patent publication US12594276B2, “Inhibitors of human immunodeficiency virus replication” (ViiV Healthcare UK (No.5) Limited, priority 2024, dated 2026)
